{"source": "patent US9023812B2", "about": "“Neuroprotective ganglioside compositions for use in treating huntington's disease” (The Governors of the University of Alberta, priority 2009, dated 2015)", "key": {"STHdh^111Q/111Q cells [1]": {"system": "STHdh^111Q/111Q cells", "assay": "Induction and measurement of apoptosis (annexin V binding / active caspase-3, FACS) in HD knock-in striatal cells", "details": "for protection from apoptosis (annexin V binding, caspase 3 activation): 0.1-1-5-10-20 μM Liga20, knock-in striatal cells WT or HD, FIG. 13", "protocol": "Conditionally-immortalized rat striatal ST14A cells and ST14A cells expressing an N-terminal fragment of mHtt containing 120 glutamines (N548-120Q) were kindly provided by Dr. E. Cattaneo (University of Milan, Italy) and maintained in culture at the permissive temperature (33° C.) as previously reported (Rigamonti et al., 2001). Conditionally-immortalized mouse striatal knock-in cells expressing endogenous levels of wild-type (STHdh^Q7/Q7) or mHtt (STHdh^Q111/Q111) were a gift from Dr. M. E. MacDonald (Massachusetts General Hospital, Boston, Mass., USA) and were maintained as previously described (Trettel et al., 2000).\nIn order to induce apoptosis immortalized cells were incubated at 39° C. […] For apoptosis detection, at the end of each treatment cells were collected, washed with PBS and incubated with PE-conjugated annexin V (BD Biosciences) according to the manufacturer's instructions. For the simultaneous detection of active caspase-3 and annexin V binding, cells were first labeled with annexin V as indicated above, then fixed in 4% paraformaldehyde and permeabilized with 0.3% saponin in PBS containing 4% donkey serum.\nGM1 (Alexis) at the indicated concentrations was added to the cells in serum-free medium at the time when cells were shifted at 39° C. to induce apoptosis.\nK252a (200 nM, Calbiochem) was used to inhibit TrK receptor-mediated signaling. […] Both inhibitors were administered to the cells 2 hours before induction of apoptosis and administration of GM1."}, "STHdh^7Q/7Q cells [2]": {"system": "STHdh^7Q/7Q cells", "assay": "Induction and measurement of apoptosis (annexin V binding / active caspase-3, FACS) in wild-type knock-in striatal cells", "type": "cell-based, mouse", "procedure": "To inhibit ganglioside synthesis, wild-type cells were incubated for 3 days in medium containing 10 μM 1-phenyl-2-palmitoylamino-3-morpholino-1-propanol (PPMP, Matreya, Pleasant Gap, Pa., USA). Cells were then washed two times with PBS and incubated for 12 hours at 39° C. in serum-free medium to induce apoptosis."}, "[3]": {"system": "Htt phosphorylation at Ser13 and S16", "assay": "PPMP treatment and immunoblotting of total and phospho-Htt in striatal knock-in cells", "type": "cell-based, mouse", "details": "10 μM PPMP for 3 days", "procedure": "Knock-in striatal cells expressing wild-type Htt (7/7) or mHtt (111/111) (Trettel, F., et al. (2000)) were incubated for 3 days in medium containing 10 μM 1-phenyl-2-palmitoylamino-3-morpholino-1-propanol (PPMP, Matreya, Pleasant Gap, Pa., USA) to inhibit ganglioside synthesis. Cells were then washed two times with PBS and lysed in 50 mM Tris, 1% NP-40, 1 mM EDTA, 10 mM NaF, 1 mM Na2VO4 and 1:100 protease inhibitor cocktail (SIGMA-Aldrich). […] HRP-conjugated secondary antibodies were used at 1:3,000 dilution (Bio-Rad Laboratories, Hercules, Calif., USA). Protein bands were detected by ECL Plus and quantitated with Quantity One® software (Bio-Rad Laboratories, Hercules, Calif., USA).\nIn these experiments, synthesis of gangliosides was inhibited in striatal knock-in cells with PPMP, as above. Levels of total and phospho-Htt were detected in total cell lysates using immunoblotting (Panel A) with mAb2166 and N17pS13pS16 antibody, respectively. Panel B is a graph is the densitometric analysis of the immunoblot show in Panel A."}, "STHdh^7Q/7Q cells [4]": {"system": "STHdh^7Q/7Q cells", "type": "cell-based, mouse"}, "[5]": {"details": "Wu et al., 2004; cited from earlier work"}, "mHtt": {"system": "mHtt", "assay": "Huntingtin immunoprecipitation and immunoblotting with anti-phospho-Ser antibody", "type": "cell-based, mouse", "details": "STHdh^111Q/111Q cells, 50 μM GM1 for 5 minutes"}, "YAC128 mice": {"system": "YAC128 mice", "assay": "Motor behavior (rotarod and horizontal ladder task) during chronic intraventricular GM1 infusion in YAC128 mice", "protocol": "(§1) The pump infused a solution of 5.6 mg GM1/ml in artificial cerebrospinal fluid (CSF) (or CSF only in control groups) into the brain ventricle at constant rate (0.25 μl/h, corresponding to 1.4 μg GM1/h or 33.6 μg GM1/day) for 28 days. […] Mice were let recovery for a week, after which motor behavior tests were performed on weekly bases.\n(§2) Motor behavior was evaluated with two sensitive tests that are considered the gold-standard for analysis of HD motor deficit: rotarod and horizontal ladder test (Ferrante, R. J. (2009)) To avoid that stress and anxiety would affect motor performance, mice were acclimatized for two days to training room, instruments and tasks to perform, before measuring the actual performance in each specific task. […] Latency to fall off the rotarod in each of these sessions was measured, averaged and compared across groups. For the horizontal ladder walking test, a task that assesses loss and recovery of sensori-motor functions 16, mice were recorded with a videocamera as they walked spontaneously across the ladder. […]\n(§3) The pump infused a solution of 3.6 mg GM1/ml in artificial CSF (or CSF only in control groups) into the brain ventricle at constant rate (0.25 μl/h) for 4 weeks. The amount of GM1 infused was calculated in order to achieve 50 μM final concentration in the mouse CSF. […]"}, "STHdh^111Q/111Q cells [6]": {"system": "STHdh^111Q/111Q cells", "type": "cell-based, mouse", "details": "50 μM GM1, HD cells, FIG. 5C"}, "wild-type mice": {"system": "wild-type mice", "assay": "Motor behavior (rotarod and horizontal ladder task) during chronic intraventricular GM1 infusion in wild-type littermates", "details": "intraventricular infusion for 28 days", "protocol": "as §1, §2, §3"}, "AKT": {"system": "AKT", "assay": "AKT activation (phospho-AKT/AKT ratio) by immunoblotting in striatal knock-in cells", "type": "cell-based, mouse", "details": "for phospho-AKT/AKT ratio: 7 minutes and 6 hours after addition of GM1, serum-free medium at 39° C.", "procedure": "FIG. 7—GM1 protective effect on striatal cells is partially mediated by AKT activation. A) Akt phosphorylation was measured 7 minutes and 6 hours after addition of GM1 in serum-free medium and incubation at 39° C. to induce cell death. Analysis of phospho-AKT/AKT ratio, indicative of AKT activation, was performed by densitometric analysis of immunoblots in three independent experiments. In each experiment, the pospho-AKT/AKT ratio measured in wild-type untreated cells (control) was arbitrarily set to 100% to which HD and GM1-treated samples were compared. Mean values±SD and representative immunoblots are shown. […] The percentage of apoptotic cells was measured by annexin V binding. Data are the mean±SD of 3 experiments, each performed in triplicate. 7/7, STHdh^7Q/7Q; 111/111, STHdh^111Q/111Q; *, p<0.05; **, p<0.001; ***, p<0.0001\nCells were scraped in 10 mM Tris-HCl, pH 7.4, containing 1% NP40, 10 mM NaF, 1 mM Na2VO4 and 1:100 protease inhibitor cocktail (SIGMA-Aldrich, St. Louis, Mo., USA) and lysed by sonication followed by incubation on ice for 30 minutes. Cell debris were removed by centrifugation at 15,000×g for 15 minutes. Protein concentration in the supernatant was measured by BCA assay (Pierce). Thirty μg of proteins were resolved on 10% SDS-PAGE and transferred to nitrocellulose membranes (Bio-Rad Laboratories, Hercules, Calif., USA). Membranes were blocked with 5% non-fat milk in TBS-T (50 mM Tris-HCl, 150 mM NaCl, pH 7.4, 0.1% Tween 20) for 1 hour and then probed overnight with primary antibodies: anti-phospho-AKT (Ser473) (1:500), anti-AKT (1:500) (both from Cell Signaling), Abcam). HRP-conjugated secondary antibodies were used at 1:3,000 dilution (Bio-Rad Laboratories, Hercules, Calif., USA). Protein bands were detected by ECL Plus (Amersham Biosciences) and analyzed with Quantity One® software (Bio-Rad Laboratories, Hercules, Calif., USA)."}, "[7]": {"system": "Htt phosphorylation at Ser13 and Ser16", "assay": "Htt phosphorylation in cerebral cortex homogenate of GM1- and CSF-infused mice (immunoblotting, pSer13Ser16 antibody)", "type": "in vivo, mouse", "details": "YAC128 and WT littermates infused for 28 days", "procedure": "At the end of the GM1 infusion protocol (28 days after peristaltic pump implantation), mice were euthanized. Brain cortices were dissected and homogenized in 50 mM Tris, 1% NP40, 1 mM EDTA, 10 mM NaF, 1 mM Na2VO4 and 1:100 protease inhibitor cocktail (SIGMA-Aldrich). […] Alexa680-conjugated secondary antibody were used at 1:1,000 dilution in Odyssey buffer. Imaging and analysis were performed using and Odyssey Infrared System (LiCor).\nSubsequent to the experimental protocol on animals described above, the mouse brains were dissected and homogenized to examine Htt phosphorylation at Ser13 and Ser16.\nIn FIG. 20, YAC128 mice and WT littermates infused with CSF (vehicle) or GM1 for 28 days were sacrificed and the amount of phospho-Htt in the same amount of cerebral cortex homogenate was detected by immunoblotting with a pSer13Ser16 specific antibody."}, "[8]": {"details": "cited from earlier work"}}, "data": [{"molecule": "COC(=O)[C@@]1(O)C[C@H]2O[C@]1(C)n1c3ccccc3c3c4c(c5c6ccccc6n2c5c31)C(=O)NC4", "note": "[K252a]", "values": [{"measurement": "effect of pan-Trk inhibitor on GM1 protective activity", "setting": "STHdh^111Q/111Q cells [1]; 200 nM K252a, 2 hours pre-incubation before GM1 and apoptotic stress, 7/7 and 111/111 cells, FIG. 10", "result": "GM1 protective activity was still fully preserved"}]}, {"molecule": "CCCCCCCCCCCCCCCC(=O)NC(CN1CCOCC1)C(O)c1ccccc1", "note": "(stereo not shown) [PPMP, 1-phenyl-2-palmitoylamino-3-morpholino-1-propanol]", "values": [{"measurement": "cell susceptibility to apoptosis after inhibition of ganglioside synthesis", "setting": "STHdh^7Q/7Q cells [2]; 10 μM PPMP for 3 days, then 12 hours serum-free medium at 39° C., FIG. 6B", "result": "increased STHdh^7Q/7Q cell susceptibility to apoptosis to the levels observed in STHdh^111Q/111Q cells"}, {"measurement": "Htt phosphorylation at Ser13 and S16 after inhibition of ganglioside synthesis", "setting": "[3]", "result": "decreases levels of phosphorylation at the same amino acid residues"}, {"measurement": "plasma membrane GM1 levels after inhibition of ganglioside synthesis", "setting": "STHdh^7Q/7Q cells [4]; 10 μM PPMP for 3 days, wild-type cells, FIG. 6A", "result": "reduce GM1 levels to the amount observed in STHdh^111Q/111Q cells"}]}, {"molecule": "LIGA-20", "values": [{"measurement": "potency relative to GM1", "setting": "[5]", "result": "at least an order of magnitude more potent than GM1"}, {"measurement": "protection from apoptosis (annexin V binding, caspase 3 activation)", "setting": "STHdh^111Q/111Q cells [1]", "result": "not effective in protecting striatal cells"}, {"measurement": "protection from apoptosis (annexin V binding, caspase 3 activation)", "setting": "STHdh^111Q/111Q cells [1]; listed as Liga20", "result": "not protective in a genetic cell model of HD"}]}, {"molecule": "ganglioside GM1", "values": [{"measurement": "mHtt phosphorylation (phospho-Ser/mHtt)", "setting": "mHtt", "result": "increased mHtt phosphorylation"}, {"measurement": "motor behavior compared with wild-type mice", "setting": "YAC128 mice; after 13 days of GM1 infusion", "result": "indistinguishable from wild-type mice"}, {"measurement": "motor behavior (rotarod, horizontal ladder task) versus CSF-infused HD mice", "setting": "YAC128 mice; intraventricular infusion 0.25 μl/h for 28 days, 3 mice per group", "result": "performed significantly better than HD control mice infused with CSF"}, {"measurement": "plasma membrane GM1 levels after GM1 administration", "setting": "STHdh^111Q/111Q cells [6]", "result": "complete restoration of GM1 levels"}, {"measurement": "behavioral differences GM1 versus CSF infusion", "setting": "wild-type mice", "result": "No behavioral differences were noted"}, {"measurement": "phospho-AKT/AKT ratio", "setting": "AKT; STHdh^7Q/7Q cells", "result": "increased the phospho-AKT/AKT ratio"}, {"measurement": "levels of active (phospho) AKT compared with wild-type", "setting": "AKT; STHdh^111Q/111Q cells after GM1 administration", "result": "restored to normal"}, {"measurement": "phospho-AKT/AKT ratio", "setting": "AKT; STHdh^111Q/111Q cells", "result": "increased the phospho-AKT/AKT ratio"}, {"measurement": "phosphorylation of Htt at Ser13 and Ser16 in cerebral cortex", "setting": "[7]", "result": "increase in the phosphorylation of Htt at these residues"}, {"measurement": "protection from apoptosis (annexin V binding, active caspase-3)", "setting": "STHdh^7Q/7Q cells [2]; 50 μM, serum deprivation at 39° C., wild-type cells", "result": "protected both wild-type and HD cells from apoptosis"}, {"measurement": "cell survival", "setting": "STHdh^7Q/7Q cells [2]; treated wild-type cells, 50 μM GM1, apoptotic conditions", "result": "cell survival was also further augmented"}, {"measurement": "effect of GM1 on PPMP-induced susceptibility to apoptosis", "setting": "STHdh^7Q/7Q cells [2]; wild-type cells pre-treated with 10 μM PPMP for 3 days", "result": "abolished PPMP effects"}, {"measurement": "GM1 content after GM1 administration", "setting": "STHdh^7Q/7Q cells [4]; 50 μM GM1, treated wild-type cells, FIG. 5C", "result": "further increase of GM1 content above their normal levels"}, {"measurement": "susceptibility of HD cells to apoptosis compared with wild-type cells", "setting": "STHdh^111Q/111Q cells [1]; 50 μM, serum deprivation at 39° C.", "result": "restored normal susceptibility to apoptosis in HD cells"}, {"measurement": "protection from apoptosis (annexin V binding, active caspase-3)", "setting": "STHdh^111Q/111Q cells [1]; 50 μM, serum deprivation at 39° C., HD cells", "result": "protected both wild-type and HD cells from apoptosis"}, {"measurement": "dose-dependency of GM1 anti-apoptotic action", "setting": "STHdh^111Q/111Q cells [1]; knock-in striatal cells (7/7 and 111/111), 6 hours in serum-free medium at 39° C., FIG. 9", "result": "dose-dependent"}, {"measurement": "frequency of possible adverse effects such as Guillain-Barre' syndrome (GBS)", "setting": "[8]; Alter, 1998", "result": "rare"}, {"measurement": "safety in clinical trials", "setting": "[8]; patients with stroke, Parkinson's disease, spinal cord injury", "result": "relatively safe to use"}]}]}
